The results in this text go back to ChEMBL document CHEMBL5614421, “Structure-activity relationship study of Pseudellone C as anti-glioma agents by targeting TNF/TNFR signaling pathway” (Eur J Med Chem, 2024).

Experiment [1] has as its system U-87 MG. Nature of the experiment: Antiproliferative activity against human U-87 MG cells assessed as inhibition of cell growth incubated for 68 hrs by CCK-8 assay. The format is functional, cell-based, U-87MG ATCC. (In general: Tetrazolium dyes change colour on reduction, which living cells bring about.)
For experiment [2], the system named is LN-229. In words: Antiproliferative activity against human LN-229 cells assessed as inhibition of cell growth incubated for 68 hrs by CCK-8 assay. The format is functional, cell-based. The settings on record: LN-229, 68 h.
Experiment [3] has as its system LN-229. Nature of the experiment: Induction of apoptosis in human LN-229 cells assessed as viable cells at 5 uM incubated for 24 hrs by Annexin V-APC/7-AAD staining based flow cytometric analysis (reference value: 92.3 %). The settings on record: read-out: Activity. It is filed as functional. For orientation: Flow cytometry measures light scatter and fluorescence of single cells or particles in a stream.

The test system of experiment [4] is LN-229. In words: Induction of apoptosis in human LN-229 cells assessed as late apoptotic cells at 5 uM incubated for 24 hrs by Annexin V-APC/7-AAD staining based flow cytometric analysis (reference value: 4.86 %). It is filed as functional.
For experiment [5], the system named is U-87 MG. In words: Induction of apoptosis in human U-87 MG cells assessed as necrotic cells at 5 uM incubated for 24 hrs by Annexin V-APC/7-AAD staining based flow cytometric analysis (reference value: 3.85 %). It is filed as functional, U-87MG ATCC.
The subject of experiment [6] is U-87 MG. Nature of the experiment: Induction of apoptosis in human U-87 MG cells assessed as viable cells at 5 uM incubated for 24 hrs by Annexin V-APC/7-AAD staining based flow cytometric analysis (reference value: 85 %). It is filed as functional, U-87MG ATCC. To be noted: read-out: Activity.
In experiment [7] the test system is LN-229. In words: Induction of apoptosis in human LN-229 cells assessed as early apoptotic cells at 5 uM incubated for 24 hrs by Annexin V-APC/7-AAD staining based flow cytometric analysis (reference value: 0.91 %). The format is functional.
Experiment [8] concerns U-87 MG. In words: Induction of apoptosis in human U-87 MG cells assessed as late apoptotic cells at 5 uM incubated for 24 hrs by Annexin V-APC/7-AAD staining based flow cytometric analysis (reference value: 7.7 %). It is filed as functional, U-87MG ATCC.
Experiment [9] concerns LN-229. Nature of the experiment: Induction of apoptosis in human LN-229 cells assessed as necrotic cells at 5 uM incubated for 24 hrs by Annexin V-APC/7-AAD staining based flow cytometric analysis (reference value: 1.95 %). It is filed as functional.
Experiment [10] relates to U-87 MG. In words: Induction of apoptosis in human U-87 MG cells assessed as early apoptotic cells at 5 uM incubated for 24 hrs by Annexin V-APC/7-AAD staining based flow cytometric analysis (reference value: 3.44 %). The format is functional, U-87MG ATCC.

On to `CCCCOC(=O)[C@H](Cc1c[nH]c2ccccc12)NC(=O)C(C)(c1c[nH]c2ccccc12)c1c[nH]c2ccccc12`, for which the figures for the half-maximal inhibitory concentration (IC50) in experiment [1] and in [2] were 21.7 µM and 20.2 µM, respectively.
`CC(C(=O)N[C@@H](Cc1c[nH]c2ccccc12)C(=O)NCC1CC1)(c1c[nH]c2ccccc12)c1c[nH]c2ccccc12`: the IC50 in experiment [1] and in [2] was greater than 50 µM in each case.
As to `COC(=O)[C@H](Cc1c[nH]c2ccccc12)NC(=O)C(C)(c1c[nH]c2cccc(F)c12)c1c[nH]c2cccc(F)c12`, the IC50 (commonly the concentration at which inhibition is half-maximal) in [1] is 22.1 µM; in experiment [2], 10.8 µM.
Take `COC(=O)[C@H](Cc1c[nH]c2ccccc12)NC(=O)C(C)(c1cn(C)c2ccccc12)c1cn(C)c2ccccc12`: the IC50 in [1] was 59.3 µM; in experiment [2] it was greater than 50 µM.
For `Cc1ccc(CNC(=O)[C@H](Cc2c[nH]c3ccccc23)NC(=O)C(C)(c2c[nH]c3ccccc23)c2c[nH]c3ccccc23)cc1`, the IC50 in [1] was 41.3 µM; in experiment [2] it was greater than 50 µM.
`CC(C)CCCOC(=O)[C@H](Cc1c[nH]c2ccccc12)NC(=O)C(C)(c1c[nH]c2ccccc12)c1c[nH]c2ccccc12`: the figures for the IC50 in experiment [1] and in experiment [2] were 8.3 µM and 12.2 µM, respectively.
In the case of `Cc1ccc(CNC(=O)C(C)(c2c[nH]c3ccccc23)c2c[nH]c3ccccc23)cc1`, the IC50 in [1] and in experiment [2] was greater than 50 µM throughout.
Take `CCCCCCCCCCCCCCNC(=O)[C@H](Cc1c[nH]c2ccccc12)NC(=O)C(C)(c1c[nH]c2ccccc12)c1c[nH]c2ccccc12`: the concentration for half-maximal inhibition (IC50) in experiment [1] and in [2] was greater than 50 µM throughout.
In the case of `CC(C(=O)N[C@@H](Cc1c[nH]c2ccccc12)C(=O)NCC1CCOCC1)(c1c[nH]c2ccccc12)c1c[nH]c2ccccc12`, the IC50 in experiment [1] and in [2] was greater than 50 µM in each case.
Consider `CCCCCCCCNC(=O)[C@H](Cc1c[nH]c2ccccc12)NC(=O)C(C)(c1c[nH]c2ccccc12)c1c[nH]c2ccccc12`, for which the IC50 in [1] came out at 10.7 µM; in experiment [2] it was 16.1 µM.
As for `CCCCCCCCCNC(=O)[C@H](Cc1c[nH]c2ccccc12)NC(=O)C(C)(c1c[nH]c2ccccc12)c1c[nH]c2ccccc12`, the half-inhibitory concentration (IC50) stood at 9.68 µM in experiment [1] and 7.17 µM in [2].
In the case of `COC(=O)[C@H](Cc1c[nH]c2ccccc12)NC(=O)C(C)(c1c[nH]c2c(F)cccc12)c1c[nH]c2c(F)cccc12`, the 50% inhibitory concentration (IC50) in [1] is 15 µM; in experiment [2] it was 5.52 µM.
As to `CC(C(=O)N[C@@H](Cc1c[nH]c2ccccc12)C(=O)O)(c1c[nH]c2ccccc12)c1c[nH]c2ccccc12`, the IC50 in [1] and in [2] was greater than 50 µM throughout.
As for `CCCCCCCCCCCCOC(=O)[C@H](Cc1c[nH]c2ccccc12)NC(=O)C(C)(c1c[nH]c2ccccc12)c1c[nH]c2ccccc12`, the IC50 is 54.9 µM in experiment [1] and greater than 50 µM in experiment [2].
In the case of `CCCCCCCOC(=O)[C@H](Cc1c[nH]c2ccccc12)NC(=O)C(C)(c1c[nH]c2ccccc12)c1c[nH]c2ccccc12`, the IC50 in experiment [1] was found to be 10.7 µM; in [2], 10.5 µM.
On to `COC(=O)[C@H](Cc1c[nH]c2ccccc12)NC(=O)C(C)(c1c[nH]c2ccccc12)c1c[nH]c2ccccc12`, for which the IC50 in experiment [1] came to 17 µM; in [2] it was 36.9 µM.
`C#CCNC(=O)[C@H](Cc1c[nH]c2ccccc12)NC(=O)C(C)(c1c[nH]c2ccccc12)c1c[nH]c2ccccc12`: the IC50 in [1] worked out at 36.4 µM; in experiment [2] it was 17.4 µM.
The like results for `CC(C(=O)O)(c1c[nH]c2ccccc12)c1c[nH]c2ccccc12` were, in that order, greater than 50 µM and greater than 50 µM.
For `CC(C(=O)N[C@@H](Cc1c[nH]c2ccccc12)C(=O)NCc1ccco1)(c1c[nH]c2ccccc12)c1c[nH]c2ccccc12`, the IC50 was determined as 46.1 µM in experiment [1] and 17.9 µM in [2].
On to `CCCCCNC(=O)[C@H](Cc1c[nH]c2ccccc12)NC(=O)C(C)(c1c[nH]c2ccccc12)c1c[nH]c2ccccc12`, for which the IC50 is 19.4 µM in [1] and 18.8 µM in [2].
In the case of `CC(C(=O)N[C@@H](Cc1c[nH]c2ccccc12)C(=O)OCC1CCOCC1)(c1c[nH]c2ccccc12)c1c[nH]c2ccccc12`, the IC50 was 29.2 µM in experiment [1] and greater than 50 µM in experiment [2].
As for `CCCCCCNC(=O)[C@H](Cc1c[nH]c2ccccc12)NC(=O)C(C)(c1c[nH]c2ccccc12)c1c[nH]c2ccccc12`, the IC50 is 16 µM in [1] and 25.5 µM in [2].
On to `COC(=O)[C@H](Cc1c[nH]c2ccccc12)NC(=O)C(C)(c1c[nH]c2cc(Br)ccc12)c1c[nH]c2cc(Br)ccc12`, for which the IC50 in [1] was 4.81 µM; in experiment [2], 6.62 µM.
`CC(C(=O)N[C@@H](Cc1c[nH]c2ccccc12)C(=O)NC1CC1)(c1c[nH]c2ccccc12)c1c[nH]c2ccccc12`: the IC50 in [1] and in experiment [2] was greater than 50 µM in each case.
As to `CCCCCCCCCOC(=O)[C@H](Cc1c[nH]c2ccccc12)NC(=O)C(C)(c1c[nH]c2ccccc12)c1c[nH]c2ccccc12`, the IC50 in experiment [1] worked out at 12.3 µM; in experiment [2], 12.6 µM.
`CNC(=O)[C@H](Cc1c[nH]c2ccccc12)NC(=O)C(C)(c1c[nH]c2ccccc12)c1c[nH]c2ccccc12`: the IC50 worked out at 46.3 µM in experiment [1] and 23.2 µM in experiment [2].
Consider `CC(C)CCNC(=O)[C@H](Cc1c[nH]c2ccccc12)NC(=O)C(C)(c1c[nH]c2ccccc12)c1c[nH]c2ccccc12`, for which the half-inhibitory concentration (IC50) in experiment [1] stood at 16.9 µM; in experiment [2], 12.7 µM.
Consider `CC(C)CNC(=O)[C@H](Cc1c[nH]c2ccccc12)NC(=O)C(C)(c1c[nH]c2ccccc12)c1c[nH]c2ccccc12`, for which the IC50 in experiment [1] and in [2] was greater than 50 µM each time.
For the compound `CC(C(=O)N[C@@H](Cc1c[nH]c2ccccc12)C(=O)NC[C@@H]1CCCO1)(c1c[nH]c2ccccc12)c1c[nH]c2ccccc12`, the results for the IC50 in experiment [1] and in experiment [2] were greater than 50 µM and 23.5 µM, respectively.
On the same counts, the results for `COCCCNC(=O)[C@H](Cc1c[nH]c2ccccc12)NC(=O)C(C)(c1c[nH]c2ccccc12)c1c[nH]c2ccccc12` are greater than 50 µM and 19.4 µM.
As for `CC(C)CCOC(=O)[C@H](Cc1c[nH]c2ccccc12)NC(=O)C(C)(c1c[nH]c2ccccc12)c1c[nH]c2ccccc12`, the IC50 was found to be 17.3 µM in [1] and 20.4 µM in [2].
The like results for `CCCCCCCCCCNC(=O)[C@H](Cc1c[nH]c2ccccc12)NC(=O)C(C)(c1c[nH]c2ccccc12)c1c[nH]c2ccccc12` were, in that order, 7.23 µM and 6.07 µM.
As for `CC(C)OC(=O)[C@H](Cc1c[nH]c2ccccc12)NC(=O)C(C)(c1c[nH]c2ccccc12)c1c[nH]c2ccccc12`, the IC50 is 23.5 µM in experiment [1] and greater than 50 µM in experiment [2].
Turning to `CCCCCCCNC(=O)C(C)(c1c[nH]c2ccccc12)c1c[nH]c2ccccc12`, the IC50 in [1] and in experiment [2] was greater than 50 µM in each case.
On to `CCCCCCCCCCOC(=O)[C@H](Cc1c[nH]c2ccccc12)NC(=O)C(C)(c1c[nH]c2ccccc12)c1c[nH]c2ccccc12`, for which the IC50 amounted to 19.9 µM in [1] and 13.1 µM in [2].
Turning to `CNC(=O)[C@@H](NC(=O)C(C)(c1c[nH]c2ccccc12)c1c[nH]c2ccccc12)C(=O)c1c[nH]c2ccccc12`, the IC50 in experiment [1] was 168 µM; in experiment [2] it was greater than 100 µM.
In the case of `COC(=O)[C@H](Cc1c[nH]c2ccccc12)NC(=O)C(C)(c1c[nH]c2ccc(C(F)(F)F)cc12)c1c[nH]c2ccc(C(F)(F)F)cc12`, the IC50 is 7.74 µM in experiment [1] and 5.52 µM in experiment [2].
For the compound `Cn1nnc2c(C(N)=O)ncn2c1=O` [TEMOZOLOMIDE], the IC50 in [1] was 113 µM; in [2] it was greater than 500 µM.
Regarding `CC(C(=O)N[C@@H](Cc1c[nH]c2ccccc12)C(=O)NC[C@H]1CCCO1)(c1c[nH]c2ccccc12)c1c[nH]c2ccccc12`, the IC50 is greater than 50 µM in [1] and 21.3 µM in experiment [2].
Consider `FC(F)(F)c1nnc2c(Sc3ccccc3)nc3ccc(Cl)cc3n12`, for which the viability at 5 µM came to 76.1% in experiment [3] and 82.7% in experiment [6]. In addition, the Activity in [4] is 8.42%; in experiment [5], 2.24%; in experiment [7], 14.6%; in experiment [8] it was 5.1%; in experiment [9], 0.97%; in experiment [10] it was 10%.
Consider `COC(=O)[C@H](Cc1c[nH]c2ccccc12)NC(=O)C(C)(c1c[nH]c2c(Br)cccc12)c1c[nH]c2c(Br)cccc12`, for which the IC50 in experiment [1] was 7.34 µM; in experiment [2], 8.71 µM.
In the case of `COc1ccc(CNC(=O)C(C)(c2c[nH]c3ccccc23)c2c[nH]c3ccccc23)cc1`, the IC50 in experiment [1] and in [2] was greater than 50 µM throughout.
Turning to `CCCCCCCCCCCCNC(=O)[C@H](Cc1c[nH]c2ccccc12)NC(=O)C(C)(c1c[nH]c2ccccc12)c1c[nH]c2ccccc12`, the IC50 in [1] was 12 µM; in experiment [2], 10.8 µM.
Take `CCCCCCNC(=O)C(C)(c1c[nH]c2ccccc12)c1c[nH]c2ccccc12`: the IC50 in experiment [1] and in [2] was greater than 50 µM throughout.
Consider `CCCCCCOC(=O)[C@H](Cc1c[nH]c2ccccc12)NC(=O)C(C)(c1c[nH]c2ccccc12)c1c[nH]c2ccccc12`, for which the half-maximal inhibitory concentration (IC50) in experiment [1] worked out at 7.54 µM; in experiment [2], 12.5 µM.
